Measurements taken from patent US20080153888A1, “ALPHA-2-DELTA LIGAND/NSAID THERAPEUTIC TREATMENT OF LOWER URINARY TRACT DISORDERS” (Recordati Ireland Limited, priority 2006, published 2008).

Tested on: anesthetized rats with acetic acid bladder infusion (animal model of overactive bladder)
Assay: Cystometry in anesthetized rats with acetic acid bladder infusion;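 further: Single-filling cystometrograms via bladder-dome catheter, basal values taken after 60 min saline infusion, BVC as mL infused until micturition, MP as peak intravesical pressure (mm Hg)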
Type: in vivo, rat
Conditions: for % Bladder Volume Capacity (vs basal) ± S.E. / ED60 (CL 95%) of recovery of Bladder Volume Capacity to basal value: single drug; for % Bladder Volume Capacity (vs basal) ± S.E.: cumulative administration; for ED60 (CL 95%) of recovery of Bladder Volume Capacity to basal value: i.v., cumulative dose-response
Protocol: Female rats (225-250 g body weight) were anesthetized with urethane (1.25 g/kg s.c.) and a catheter (PE-50, 0.58 mm I.D.×0.96 mm O.D.) was inserted into the jugular vein for intravenous drug administration. A midline lower abdominal incision was made and a second PE-50 catheter was inserted into the bladder dome for bladder filling and pressure recording, and the incision was sutured.
Dosages were administered by injection in a volume of 1 ml per kg body weight.
a) Saline was continuously infused at a rate of 0.055 ml/min by mean of a peristaltic pump via the bladder-filling catheter for 60 minutes to obtain a baseline of bladder activity. Then the infusion pump was stopped and the bladder was emptied of residual fluid by capillarity via the infusion catheter. After this procedure, a single filling cystometrogram was performed in order to determine the two urodynamic parameters: bladder volume capacity (BVC) and micturition pressure (MP) (BVC and MP BASAL VALUES).
After 30 minutes of acetic acid infusion, 3 vehicle injections were made at 20 minute intervals. Then the infusion pump was stopped, the bladder was emptied and a single filling cystometrogram was recorded as reported before (BVC and MP VALUES AFTER IRRITATION).
This procedure was repeated for three times in order to follow a cumulative dose-response protocol.
BVC is defined as the volume (mL) of fluid (saline or dilute acetic acid) infused in the bladder necessary to induce detrusor contractions followed by micturition. MP is defined as the maximal intravesical pressure (mm Hg) determined by the contraction of the detrusor during micturition.
Changes in bladder capacity for each animal were expressed as “% bladder volume capacity vs. basal (saline infusion)” and an increase in this index was used as measure of efficacy (recovery from irritation to basal value).

| SMILES | % Bladder Volume Capacity (vs basal) ± S.E. (dose 0.3 mg/kg i.v.) [%] | % Bladder Volume Capacity (vs basal) ± S.E. (dose 1.0 mg/kg i.v.) [%] | % Bladder Volume Capacity (vs basal) ± S.E. (dose 3 mg/kg i.v.) [%] | % Bladder Volume Capacity (vs basal) ± S.E. (dose 10 mg/kg i.v.) [%] | ED60 (CL 95%) of recovery of Bladder Volume Capacity to basal value | % Bladder Volume Capacity (vs basal) ± S.E. (dose 30 mg/kg i.v.) [%] | % Bladder Volume Capacity (vs basal) ± S.E. (dose 60 mg/kg i.v.) [%] | % Bladder Volume Capacity (vs basal) ± S.E. (dose 100 mg/kg i.v.) [%] | % Bladder Volume Capacity (vs basal) ± S.E. (dose 300 mg/kg i.v.) [%] | % Bladder Volume Capacity (vs basal) ± S.E. (dose 0.1 mg/kg i.v.) [%] | % Bladder Volume Capacity (vs basal) ± S.E. (dose 3 mg/kg i.v., 3 mg/kg) [%] | micturition pressure (MP) (after increase of MP induced by acetic acid infusion, data not shown) |
| --- | --- | --- | --- | --- | --- | --- | --- | --- | --- | --- | --- | --- |
| CS(=O)(=O)Nc1ccc([N+](=O)[O-])cc1Oc1ccccc1 [Nimesulide] | 38 ± 10 | 36 ± 12 | 37 ± 7 | 47 ± 15 | >>10 |  |  |  |  |  |  |  |
| CC1=C(CC(=O)O)c2cc(F)ccc2/C1=C\c1ccc([S+](C)[O-])cc1 (stereo not shown) [Sulindac, sulindac] | 27 ± 5 | 39 ± 11 | 34 ± 8 | 38 ± 4 | >30 | 54 ± 8 |  |  |  |  |  |  |
| NCC1(CC(=O)O)CCCCC1 [Gabapentin] |  |  |  |  | 112 (75-149) | 27 ± 4 | 51 ± 15 | 55 ± 9 | 82 ± 12 |  |  |  |
| O=C(O)Cc1ccccc1Nc1c(Cl)cccc1Cl [Diclofenac, diclofenac] | 41 ± 10 | 63 ± 13 | 82 ± 15 |  | 0.85 (0.80-0.90) |  |  |  |  |  |  |  |
| CC(C(=O)O)c1ccc(-c2ccccc2)c(F)c1 (stereo not shown) [Flurbiprofen, flurbiprofen] | 42 ± 6 | 49 ± 9 |  | 73 ± 12 | 2.34 (nc-4.77) |  |  |  |  | 43 ± 11 | 62 ± 10 |  |
| CC(C)C[C@H](CN)CC(=O)O [Pregabalin, pregabalin] |  |  |  | 31 ± 6 | 300.5 (n.c.-n.c.) | 35 ± 6 |  | 52 ± 8 |  |  |  | recovered to basal values |
